# Experimental data published in US4110327A, “2,3 Diketo-piperazinocarbonylamino alkanoic acids and derivatives” (Toyama Chemical Co., Ltd., priority 1974, dated 1978).
# How the values were obtained:
# [1] = tested on: β-lactamase; experiment: Resistant activity against β-lactamase, iodometric assay; assay type: biochemical, Pseudomonas aeruginosa GN 238; settings: relative to Potassium Penicillin G = 100
# Experimental: (3) Resistant activity against β-lactamase, Pseudomonas aergionan GN 238:
# The resistant activity of each compound against β-lactamase was measured in the manner described below.
# β-Lactamase was prepared from Pseudomonas aeruginosa GN 238. This microorganism was cultured in 100 ml of a medium containing 2 g of yeast extract, 10 g of polypeptone, 2 g of glucose, 7 g of disodium hydrogen phosphate, 2 g of potassium dihydrogen phosphate, 1.2 g of ammonium sulfate and 0.4 g of magnesium sulfate, per liter, in a 500-ml Erlenmeyer flask for 6 hrs. at 37° C with shaking. The resulting cells were collected by centrifugation (5,000 r.p.m. × 10 min.), washed three times with 0.1 M phosphate buffer (pH 7.0). Subsequently, the cells were subjected to sonication (20 KHz, 20 min.) and then centrifuged at 15,000 r.p.m. for 60 min. By using the supernatant of enzyme fluid, the resistance of each compound against β-lactamase was determined by the iodometric assay method. Each numeral shown in Table 7 is a relative activity value calculated by assuming as 100 the activity of the control Potassium Penicillin G.
# [2] = tested on: Proteus rettgeri; experiment: MIC against clinical isolates; assay type: cell-based; settings: clinical isolate, unit assumed
# [3] = tested on: Staphylococcus aureus; experiment: MIC against clinical isolates; assay type: cell-based; settings: unit assumed
# [4] = tested on: Proteus mirabilis; experiment: MIC against clinical isolates; assay type: cell-based; settings: clinical isolate, unit assumed
# [5] = tested on: Proteus morganii; experiment: MIC against clinical isolates; assay type: cell-based; settings: clinical isolate, unit assumed
# [6] = tested on: Proteus vulgaris 3027; experiment: MIC against standard strain, plate method; assay type: cell-based; settings: Proteus vulgaris 3027, standard strain; unit assumed
# Method in brief: (§1)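 Cells at 10^6 cells/ml were spotted to give 10^4 cells per plate on heart infusion agar adjusted to pH 7.4. The minimum inhibitory concentration was then read.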
# [7] = tested on: Klebsiella pneumoniae; experiment: MIC against standard strain, plate method; assay type: cell-based; settings: unit assumed
# Method in brief: as §1
# [8] = tested on: Escherichia coli NIHJ; experiment: MIC against standard strain, plate method; assay type: cell-based; settings: unit assumed
# Method in brief: as §1
# [9] = tested on: Pseudomonas aeruginosa I.F.O.; experiment: MIC against standard strain, plate method; assay type: cell-based; settings: unit assumed
# Method in brief: as §1
# [10] = tested on: Staphylococcus aureus 209p; experiment: MIC against standard strain, plate method; assay type: cell-based; settings: unit assumed
# Method in brief: as §1
# [11] = tested on: Klebsiella pneumoniae; experiment: MIC against clinical isolates; assay type: cell-based; settings: unit assumed
# [12] = tested on: Escherichia coli; experiment: MIC against clinical isolates; assay type: cell-based; settings: unit assumed
# [13] = tested on: Proteus vulgaris; experiment: MIC against clinical isolates; assay type: cell-based; settings: clinical isolate, unit assumed
# [14] = tested on: Pseudomonas aeruginosa; experiment: MIC against clinical isolates; assay type: cell-based; settings: unit assumed
# [15] = tested on: Shigella flexneri; experiment: MIC against clinical isolates; assay type: cell-based; settings: unit assumed
# Experimental: (§2) The minimum inhibitory concentrations (MIC) was determined by the plate method disclosed in "Chemotherapy" (Japan), Vol. 16, (1968), pages 98 - 99. The culture medium used was a Heart infusion agar (pH 7.4). The number of the cells per plate used in the inoculum as 10^4 (10^6 cells/ml).
# (§3) MIC was determined in the same manner as in the preceding paragraph (1).
# [16] = tested on: Shigella sonnei; experiment: MIC against clinical isolates; assay type: cell-based; settings: unit assumed
# Experimental: as §2, §3
# [17] = tested on: Salmonella typhi; experiment: MIC against clinical isolates; assay type: cell-based; settings: unit assumed
# [18] = tested on: Salmonella typhi-murium; experiment: MIC against clinical isolates; assay type: cell-based; settings: unit assumed
# [19] = clinical isolate GN (number not given; Table 5-3)
smiles,measurement,setting,value
CCCCCCCCN1CCN(C(=O)N[C@@H](C(=O)N[C@@H]2C(=O)N3[C@@H]2SC(C)(C)[C@@H]3C(=O)O)c2ccccc2)CC1=O [compound 30],Relative activity,[1],3%
same,MIC,[2],12.5 µg/mL
same,MIC,[3]; clinical isolate F-1,3.13 µg/mL
same,MIC,[3]; clinical isolate F-2,0.79 µg/mL
same,MIC,[3]; clinical isolate F-3,0.79 µg/mL
same,MIC,[3]; clinical isolate F-4,3.13 µg/mL
same,MIC,[3]; clinical isolate F-5,100 µg/mL
same,MIC,[3]; clinical isolate MS 8588,1.57 µg/mL
same,MIC,[3]; clinical isolate MS 8596,1.57 µg/mL
same,MIC,[3]; clinical isolate MS 8619,< 0.4 µg/mL
same,MIC,[3]; clinical isolate MS 8684,1.57 µg/mL
same,MIC,[3]; clinical isolate MS 8713,1.57 µg/mL
same,MIC,[4],3.13 µg/mL
same,MIC,[5],3.13 µg/mL
same,MIC,[6],3.13 µg/mL
same,MIC,[7],6.25 µg/mL
same,MIC,[8],< 1.57 µg/mL
same,MIC,[9],25 µg/mL
same,MIC,[10],< 1.57 µg/mL
same,MIC,[11]; clinical isolate GN 917,25 µg/mL
same,MIC,[11]; clinical isolate GN 3850,25 µg/mL
same,MIC,[11]; clinical isolate GN 4081,100 µg/mL
same,MIC,[11]; clinical isolate GN 4117,100 µg/mL
same,MIC,[12]; clinical isolate GN 3435,12.5 µg/mL
same,MIC,[12]; clinical isolate GN 3452,25 µg/mL
same,MIC,[12]; clinical isolate GN 3465,50 µg/mL
same,MIC,[12]; clinical isolate GN 3481,25 µg/mL
same,MIC,[12]; clinical isolate GN 3611,> 200 µg/mL
same,MIC,[12]; clinical isolate K-1,12.5 µg/mL
same,MIC,[12]; clinical isolate K-2,25 µg/mL
same,MIC,[12]; clinical isolate K-3,> 200 µg/mL
same,MIC,[12]; clinical isolate K-4,12.5 µg/mL
same,MIC,[13],3.13 µg/mL
same,MIC,[14]; clinical isolate GN 82,25 µg/mL
same,MIC,[14]; clinical isolate GN 163,25 µg/mL
same,MIC,[14]; clinical isolate GN 221,50 µg/mL
same,MIC,[14]; clinical isolate GN 376,50 µg/mL
same,MIC,[14]; clinical isolate GN 383,50 µg/mL
same,MIC,[14]; clinical isolate GN 1035,50 µg/mL
same,MIC,[14]; clinical isolate GN 1091,25 µg/mL
same,MIC,[14]; clinical isolate GN 2565,50 µg/mL
same,MIC,[14]; clinical isolate GN 2987,12.5 µg/mL
same,MIC,[14]; [19],50 µg/mL
same,MIC,[14]; clinical isolate S-1,50 µg/mL
same,MIC,[14]; clinical isolate S-2,50 µg/mL
same,MIC,[14]; clinical isolate S-3,100 µg/mL
same,MIC,[14]; clinical isolate S-4,50 µg/mL
CCN1CCN(C(=O)N[C@@H](C(=O)N[C@@H]2C(=O)N3[C@@H]2SC(C)(C)[C@@H]3C(=O)O)c2ccccc2)C(=O)C1=O [compound 36],MIC,[15]; clinical isolate JS 11215,100 µg/mL
same,MIC,[15]; clinical isolate JS 11839,3.13 µg/mL
same,MIC,[16]; clinical isolate JS 11232,50 µg/mL
same,MIC,[16]; clinical isolate JS 11755,3.13 µg/mL
same,Relative activity,[1],14%
same,MIC,[2],12.5 µg/mL
same,MIC,[3]; clinical isolate F-1,12.5 µg/mL
same,MIC,[3]; clinical isolate F-2,3.13 µg/mL
same,MIC,[3]; clinical isolate F-5,> 200 µg/mL
same,MIC,[3]; clinical isolate MS 8588,3.13 µg/mL
same,MIC,[3]; clinical isolate MS 8596,3.13 µg/mL
same,MIC,[3]; clinical isolate MS 8619,0.79 µg/mL
same,MIC,[3]; clinical isolate MS 8684,3.13 µg/mL
same,MIC,[4],< 0.4 µg/mL
same,MIC,[5],< 0.4 µg/mL
same,MIC,[6],< 1.57 µg/mL
same,MIC,[7],< 1.57 µg/mL
same,MIC,[8],< 1.57 µg/mL
same,MIC,[10],< 1.57 µg/mL
same,MIC,[11]; clinical isolate GN 3850,12.5 µg/mL
same,MIC,[11]; clinical isolate GN 4081,100 µg/mL
same,MIC,[11]; clinical isolate GN 4117,100 µg/mL
same,MIC,[17]; clinical isolate SL 819,1.57 µg/mL
same,MIC,[17]; clinical isolate SL 2169,1.57 µg/mL
same,MIC,[18]; clinical isolate SL 858,6.25 µg/mL
same,MIC,[18]; clinical isolate SL 2136,> 200 µg/mL
same,MIC,[12]; clinical isolate GN 3452,3.13 µg/mL
same,MIC,[12]; clinical isolate GN 3465,100 µg/mL
same,MIC,[12]; clinical isolate GN 3481,3.13 µg/mL
same,MIC,[12]; clinical isolate GN 3611,> 200 µg/mL
same,MIC,[12]; clinical isolate K-1,3.13 µg/mL
same,MIC,[12]; clinical isolate K-2,3.13 µg/mL
same,MIC,[12]; clinical isolate K-3,> 200 µg/mL
same,MIC,[13],< 0.4 µg/mL
same,MIC,[14]; clinical isolate GN 221,3.13 µg/mL
same,MIC,[14]; clinical isolate GN 1035,25 µg/mL
same,MIC,[14]; clinical isolate GN 2565,25 µg/mL
same,MIC,[14]; clinical isolate GN 2987,12.5 µg/mL
same,MIC,[14]; [19],12.5 µg/mL
same,MIC,[14]; clinical isolate S-1,50 µg/mL
same,MIC,[14]; clinical isolate S-2,12.5 µg/mL
same,MIC,[14]; clinical isolate S-3,25 µg/mL
same,MIC,[14]; clinical isolate S-4,50 µg/mL
"CN1CCN(C(=O)N[C@@H](C(=O)N[C@@H]2C(=O)N3[C@@H]2SC(C)(C)[C@@H]3C(=O)O)c2ccccc2)C(=O)C1=O (single isomer, unassigned) [compound 37]",MIC,[15]; clinical isolate JS 11215,> 200 µg/mL
same,MIC,[16]; clinical isolate JS 11232,100 µg/mL
same,Relative activity,[1],15%
same,MIC,[2],25 µg/mL
same,MIC,[3]; clinical isolate F-2,1.57 µg/mL
same,MIC,[3]; clinical isolate F-5,> 200 µg/mL
same,MIC,[3]; clinical isolate MS 8619,0.79 µg/mL
same,MIC,[4],0.79 µg/mL
same,MIC,[5],0.79 µg/mL
same,MIC,[6],< 1.57 µg/mL
same,MIC,[8],< 1.57 µg/mL
same,MIC,[10],< 1.57 µg/mL
same,MIC,[11]; clinical isolate GN 3850,25 µg/mL
same,MIC,[11]; clinical isolate GN 4081,200 µg/mL
same,MIC,[11]; clinical isolate GN 4117,100 µg/mL
same,MIC,[17]; clinical isolate SL 819,6.25 µg/mL
same,MIC,[17]; clinical isolate SL 2169,3.13 µg/mL
same,MIC,[18]; clinical isolate SL 858,12.5 µg/mL
same,MIC,[18]; clinical isolate SL 2136,> 200 µg/mL
same,MIC,[12]; clinical isolate GN 3465,200 µg/mL
same,MIC,[12]; clinical isolate GN 3611,> 200 µg/mL
same,MIC,[12]; clinical isolate K-3,> 200 µg/mL
same,MIC,[13],< 0.4 µg/mL
same,MIC,[14]; clinical isolate GN 383,25 µg/mL
same,MIC,[14]; clinical isolate GN 1035,50 µg/mL
same,MIC,[14]; clinical isolate GN 2565,25 µg/mL
same,MIC,[14]; clinical isolate GN 2987,25 µg/mL
same,MIC,[14]; [19],50 µg/mL
same,MIC,[14]; clinical isolate S-1,200 µg/mL
same,MIC,[14]; clinical isolate S-2,25 µg/mL
same,MIC,[14]; clinical isolate S-3,50 µg/mL
same,MIC,[14]; clinical isolate S-4,100 µg/mL
